In US20240182862A1, “METHOD FOR PRODUCING MESENCHYMAL STEM CELLS” (AJINOMOTO CO., INC., priority 2021, published 2024):

Key:
[1] = when hydrocortisone is set to 1; cited from earlier work
[2] = tested on: iNCC (iPS cell-derived neural crest cell); assay: Differentiation induction from iNCC into iMSC, surface antigen analysis using FACS; assay type: cell-based, human
Method: The obtained iNCCs (iPSC-derived NCCs) were seeded at a density of 5.0×10^3 cells/well into a 6-well plate coated with vitronectin-N (Thermo Fisher Scientific) at a density of 1.5 μg/cm^2 and cultured under 37° C., 5% CO2 conditions for […] using the following differentiation medium (T3 medium) to induce iMSCs (iPSC-derived MSCs).
T3 medium: StemFit (registered trademark) For Mesenchymal Stem Cells (Ajinomoto Co., Inc.), 90 nM Dexamethasone (Sigma-Aldrich) […]
iMSC was induced according to Example 1, except that 100 nM Dexamethasone, 100 nM betamethasone, 100 nM predonisolone, 666 nM predonisolone were used.
Regarding the induced iMSC, surface antigen analysis of 4 types of MSC positive markers (CD90, CD44, CD73, CD105), 1 type of NCC positive marker (MSC micro-positive marker) (CD271), and two types of MSC negative markers (CD45 and CD34) was performed using FACS.

[3] = Titer of corticosteroid as glucocorticoid; settings: titer as glucocorticoid taken for the converted concentrations of the Examples
[4] = tested on: LX-2 Human Hepatic Stellate Cell Line; assay: Antifibrotic action of secretome: RT-PCR of fibrosis marker genes COL1A1 and ACTA2 in LX-2 cells; assay type: cell-based; settings: effect of TGF-β1 stimulation itself (10 ng/mL)
Method: LX-2 Human Hepatic Stellate Cell Line (EDM Millipore, hereinafter LX-2 cells) was cultured in a DMEM high Glucose (Life Technologies) medium supplemented with 10% FBS (Gibco), 1% penicillin-streptomycin (Nacalai), and 2 mM Glutamine (Gibco). On the fourth passage, 4×10^4 cells were seeded into each well of a 12-well plate. After 2 days of culture, the medium was replaced with a medium in which concentrated secretome obtained from iMSC was added at a concentration of 1× to a medium supplemented with 10 ng/mL TGF-β1 (Peprotech), and the culture was continued. On the second day after replacing the medium, cells were detached with Accutase (Thermo Fisher), and after collection, RNA was extracted and purified using Maxwell (registered trademark) 16 LEV simplyRNA Purification Kits (Promega), and reverse transcription was performed using PrimeScript™ RT Master Mix (Takara). RT-PCR was performed on the synthesized cDNA using the primers of TaqMan (registered trademark) Gene Expression Assays shown in Table 5.

[5] = tested on: TSG-6 (TNFAIP6); assay: Gene expression of TSG-6 (TNFAIP6) after IFNγ stimulation, Real-Time PCR; assay type: cell-based, human; settings: iMSC induced by adding 50 nM to 10 μM Dexamethasone, 18 days; 50 ng/mL IFNγ for 48 hr; FIG. 3
Method: iNCCs were seeded at a density of 5.0×10^3 cells/well into a 6-well plate coated with vitronectin-N at a density of 1.5 μg/cm^2, and cultured under 37° C., 5% CO2 conditions for 16 days using T3 medium to induce iMSCs.
After 16 days from the start of induction, 50 ng/mL IFNγ (R&D Systems) was added to T3 medium to stimulate for 48 hr. After stimulation, RNA was purified according to the protocol of PureLink (trademark) RNA Mini Kit (Thermo Fisher Scientific) and, after reverse transcription, gene expression of TSG-6 (TNFAIP6), a therapeutic marker for inflammatory diseases, was analyzed using Real-Time PCR. As comparison targets, iNCC-derived iMSC induced to differentiate in αMEM medium containing 10% FBS, and two lots of living bone marrow-derived MSC (BMMSC) (Lonza or RoosterBio) cultured in T3 medium for 12 to 16 days were used (Table 2).
iNCCs were seeded at a density of 3.0×10^4 cells/well into a 6-well plate coated with vitronectin-N at a density of 1.5 μg/cm^2, and cultured under 37° C., 5% CO2 conditions using StemFit (registered trademark) For Mesenchymal Stem Cells supplemented with 50 nM, 100 nM, 1 μM, 10 μM, 50 μM Dexamethasone to induce iMSCs. […] After stimulation, RNA was purified and, after reverse transcription, gene expression of TNFAIP6 was analyzed using Real-Time PCR.

[6] = tested on: iNCC; assay: Cell proliferation curve during differentiation induction; assay type: cell-based, human; settings: group added with 50 μM; FIG. 2
[7] = StemFit For MSC + 100 nM corticosteroid
[8] = StemFit For MSC + 666 nM corticosteroid

Compound | titer of corticosteroid as glucocorticoid [1] | CD34 (MSC negative marker) FACS [2, 7] | CD44 (MSC positive marker) FACS [2, 7] | CD45 (MSC negative marker) FACS [2, 7] | CD73 (MSC positive marker) FACS [2, 7] | CD90 (MSC positive marker) FACS [2, 7] | CD105 (MSC positive marker) FACS [2, 7] | CD271 (NCC positive, MSC micro-positive marker) FACS [2, 7] | further results
C[C@]12C=CC(=O)C=C1CC[C@H]1[C@@H]3C[C@@H](O)[C@](O)(C(=O)CO)[C@@]3(C)C[C@H](O)[C@@]12F [triamcinolone] | 5 | – | – | – | – | – | – | – | –
C[C@]12C=CC(=O)C=C1CC[C@@H]1[C@@H]2[C@@H](O)C[C@@]2(C)[C@H]1CC[C@]2(O)C(=O)CO [Prednisolone] | 4 | 9.22% | 99.60% | 0.56% | 96.38% | 98.99% | 93.32% | 56.94% | effect in promoting differentiation ([2]; 666 nM, titer as glycocorticoid aligned): effective in promoting differentiation; CD34 (MSC negative marker) FACS [2, 8]: 9.86%; CD44 (MSC positive marker) FACS [2, 8]: 99.70%; CD45 (MSC negative marker) FACS [2, 8]: 0.88%; CD73 (MSC positive marker) FACS [2, 8]: 97.38%; CD90 (MSC positive marker) FACS [2, 8]: 99.18%; CD105 (MSC positive marker) FACS [2, 8]: 95.28%; CD271 (NCC positive, MSC micro-positive marker) FACS [2, 8]: 41.02%; effect in promoting differentiation ([2]; added at 100 nM): limited effect; titer used to convert concentrations [3]: 4
C[C@@H]1C[C@H]2[C@@H]3C[C@H](F)C4=CC(=O)C=C[C@]4(C)[C@H]3[C@@H](O)C[C@]2(C)[C@@]1(O)C(=O)CO [paramethasone] | 10 | – | – | – | – | – | – | – | –
TGF-β1: TGF-β1 (Peprotech), 10 ng/mL stimulus of LX-2 cells | – | – | – | – | – | – | – | – | ACTA2 expression [4]: markedly increased; COL1A1 expression [4]: markedly increased
C[C@H]1C[C@H]2[C@@H]3CCC4=CC(=O)C=C[C@]4(C)[C@@]3(F)[C@@H](O)C[C@]2(C)[C@@]1(O)C(=O)CO [Betamethasone] | – | 8.12% | 99.60% | 0.88% | 97.86% | 98.96% | 95.34% | 34.14% | –
C[C@@H]1C[C@H]2[C@@H]3CCC4=CC(=O)C=C[C@]4(C)[C@@]3(F)[C@@H](O)C[C@]2(C)[C@@]1(O)C(=O)CO [Dexamethasone, Pregna-1,4-diene-3,20-dione,9-fluoro-11,17,21-trihydroxy-16-methyl-, (11β,16α)-] | – | 10.52% | 99.26% | 0.64% | 97.82% | 99.22% | 96.36% | 23.42% | gene expression of TSG-6 by IFNγ stimulation [5]: significantly increased; proliferation of cells during differentiation induction [6]: stopped after day 13; titer used to convert concentrations [3]: 26.66
C[C@]12CCC(=O)C=C1CC[C@@H]1[C@@H]2C(=O)C[C@@]2(C)[C@H]1CC[C@]2(O)C(=O)CO [cortisone] | 0.8 | – | – | – | – | – | – | – | –
